In US5824785A, “Dyes for ink jet printing” (Ilford Imaging Switzerland GmbH, priority 1995, dated 1998) one finds solubility data, which are given here for 5 molecules.

Structures are written as SMILES. Values after ≈ are worked out from the molar mass of the structure shown.

A short description of this series: solubility of the dyes in water. It is filed as physicochemical. To be noted: excess dye stirred 1 h at 50° C., cooled to 20° C., filtered, spectroscopic determination, read-out: Solubility (in g per 100 ml). As to the method: The solubilities of the dyes according to the invention were determined as follows:
An excess of dye was heated at 50° C. in water with stirring for one hour. The mixture was then cooled down to 20° C. and filtered, and the dye content of the clear solution was determined spectroscopically.
In general, solubility refers to the concentration that dissolves in the medium under given conditions. Consider `COc1cc(N=Nc2c(N)ccc3cc(S(=O)(=O)O)cc(O)c23)c(C)cc1Nc1nc(NCCO)nc(Nc2cccc(S(=O)(=O)O)c2)n1` [dye 1, reference compound], for which the solubility came to 200 mg/mL (≈ 281 mM).
Then `Nc1ccc2cc(S(=O)(=O)O)cc(O)c2c1N=Nc1ccc(Nc2nc(NCCS(=O)(=O)O)nc(NCCS(=O)(=O)O)n2)cc1S(=O)(=O)O` [compound 102], with 260 mg/mL (≈ 340 mM); and `Nc1ccc2cc(S(=O)(=O)O)cc(O)c2c1N=Nc1ccc(Nc2nc(NCCS(=O)(=O)O)nc(N(CCO)CCO)n2)cc1S(=O)(=O)O` [compound 101], with 320 mg/mL (≈ 430 mM).
Next, `CCCCCCNc1nc(NCCCCCC)nc(Nc2cc(S(=O)(=O)O)cc3cc(S(=O)(=O)O)c(N=Nc4ccccc4S(=O)(=O)O)c(O)c23)n1` [dye 5, reference compound]: 150 mg/mL (≈ 192 mM).
`CN(CCO)c1nc(NCCS(=O)(=O)O)nc(Nc2ccc(N=Nc3c(N)ccc4cc(S(=O)(=O)O)cc(O)c34)c(S(=O)(=O)O)c2)n1` [compound 100]: the solubility was 350 mg/mL (≈ 490 mM).
